Counter-ions that a name gives are not always drawn.
Columns and labels:
plasma proteins = conditions: concentration range of 0.1 to 2.0 μg/mL; cited from earlier work
[1] = cited from earlier work
[2] = cited from earlier work; remark: listed apart in the source
[3] = Solubility of amantadine HCl in water; assay type: physicochemical; conditions: 160 mg, 240 mg and 320 mg of amantadine HCl

Compound	bound to plasma proteins (plasma proteins) [%]	average elimination half-life ([1]; patients on chronic maintenance hemodialysis)	apparent plasma clearance ([1]; single dose 25 to 75 mg, 7 healthy elderly male volunteers, range 0.06 to 0.17) [L/h/kg]	half-life ([1]; single dose 25 to 75 mg, 7 healthy elderly male volunteers, range 20 to 41) [h]	volume of distribution ([2]; after intravenous administration) [L/kg]	reduction of renal clearance of amantadine ([2]; coadministration of quinine or quinidine)	administered dose excreted unchanged in urine ([2]; in vivo)	metabolism as share of total clearance ([2]; in vivo)	solubility in water [3]
NC12CC3CC(CC(C3)C1)C2 [Amantadine, amantadine]	67	eight days	0.10 ± 0.04	29 ± 7	3 to 8	about 30%	approximately 85%	5-15%	–
NC12CC3CC(CC(C3)C1)C2 [amantadine HCl, Amantadine Hydrochloride]	–	–	–	–	–	–	–	–	soluble in 250 mL water

Source: patent US10213394B1, “Composition and method for treating neurological disease” (Osmotica Kereskedelmi és Szolgáltató Korlátolt Felelõsségû …, priority 2018, dated 2019)
